# Reference: patent publication US6620841B1, “Aromatic heterocycle compounds having HIV integrase inhibiting activities” (Shionogi & Co., Ltd., priority 1998, dated 2003)
# Where two headings read alike, the source gives them in different places.
# What was measured:
# Assay type in all cases: cell-based
# HIV-1 NL432 = assay: Anti-HIV/SIV activity in infected Molt-4 cells, virus amount by RT activity; conditions: RT activity of supernatant at 5 days postinfection
# Procedure: (§1) (1) Molt-4 cells (2×10^6 cells) were infected with HIV-1 NL432 (4×10^6 cpm), HIV-2 Rod (8×10^6 cpm), SIVmac MA239 (8×10^6 cpm) and SIVagm SA212 (8×10^6 cpm), and incubated for 1 hr at room temperature.
# (§2) (1) Preparation of HIV-1 NL432: SW480 cells were cultured in DMEM medium supplemented with 10% fetal bovine serum using 25 cm^2 flask. HIV-1 infectious molecular DNA (40 μg), pNL432, transfected to the cells by calcium phosphate coprecipitation method, and the supernatant (2 ml) at 2-3 days post-transfection was infected to M8166 cells (1×10^6 cells). The cells were cultured in 10 ml RPMI medium supplemented with 10% fetal bovine serum in CO2 incubator at 37° C. After apparent giant cells were observed, the cells were removed by centrifugation and then the supernatant was filtrated by 0.45 μm filter, measured RT activity, and stored at −80° C. as HIV-1 stock virus.
# (§3) (2) The cells were washed twice to remove the viruses and suspended in 10 ml RPMI medium supplemented with 10% fetal bovine serum. The infected cells (100 μl) were plated in 96 well microtiter plates containing with the serial 5 fold dilution of compounds (100 μl) and cultured in CO2 incubator at 37° C.
# (§4) (3) The supernatant at 5 days postinfection was harvested and measured the amount of the virus by RT activity.
# (§5) Preparation of the solution for RT assay:
# (§6) A reaction mixture (90 μl) were contained 50 mM Tris-HCl, pH 8.3, 150 mM KCl, 10 mM MgCl2, 0.1% Nonidet P-40, 10 mM DTT (dithiothreitol), 5 μg/ml poly(rA), 5 μg/ml (dT)12-18 and 1 μCi [^3H] dTTP at final concentration after mixture of a sample (10 μl).
# (§7) The procedure of RT assay:
# (§8) 1. 10 μl of sample was plated to 3 wells of 96 well microtiter plate (triplicate assay).
# (§9) 2. Reaction mixture (90 μl) chilled at 4° C. was added to each well, mixed and then incubate at 37° C. for 3 hrs.
# (§10) 3. After incubation, the plate was chilled on ice, and passed through a DEAE-Filtermat using cell harvester. The filter was washed with 4.5% Na2HPO4 (20 sec) and H2O (10 sec).
# (§11) 4. The filter was dried at 95° C. for 15 min.
# (§12) 5. 10 ml of scintilator was added and sealed.
# (§13) 6. Radioactivity was measured by LKB Beta Plate scintillation spectroscopy.
# (§14) 7. RT activity (cpm/ml) was calculated from average of three wells.
# HIV-2 Rod = assay: as above; conditions: RT activity of supernatant at 5 days postinfection
# Procedure: as §1
# (2) Preparation of […] Rod: HIV-2 Rod was infected to M8166 cells (1×10^6 cells). The cells were cultured in 10 ml RPMI medium supplemented with 10% fetal bovine serum in CO2 incubator at 37° C. After apparent giant cells were observed, the cells were removed by centrifugation and then the supernatant was filtrated by 0.45 μm filter, measured RT activity, and stored at −80° C. as HIV-2 stock virus.
# as §3, §4, §5, §6, §7, §8, §9, §10, §11, §12, §13, §14
# SIVmac MA239 = assay: as above; conditions: RT activity of supernatant at 5 days postinfection
# Procedure: as §1
# as §2, with “(3) Preparation” for “(1) Preparation”, “of SIVmac MA239:” for “of HIV-1 NL432:”, “flask. SIVmac MA239” for “flask. HIV-1”, “μg), pMA239,” for “μg), pNL432,”, “to CEMX174” for “to M8166”, “as SIVmac” for “as HIV-1”
# as §3, §4, §5, §6, §7, §8, §9, §10, §11, §12, §13, §14
# SIVagm SA212 = assay: as above; conditions: RT activity of supernatant at 5 days postinfection
# Procedure: as §1
# (4) Preparation of SIVagm SA212: SW480 cells were cultured in DMEM medium supplemented with 10% fetal bovine serum using 25 cm^2 flask. SIVagm SA212 infectious molecular DNA (40 μg), pSA212, transfected to the cells by calcium phosphate coprecipitation methods, and the supernatant (2 ml) at 2-3 days post-transfection was infected to M8166 cells (1×10^6 cells). The cells were cultured in 10 ml RPMI medium supplemented with 10% fetal bovine serum in CO2 incubator at 37° C. Every 3 days, the cells were separated from the supernatant by centrifugation and continued culture with new medium. The each supernatant was filtrated by 0.45 μm filter, measured RT activity, and stored at −80° C. as SIVagm stock virus.
# as §3, §4, §5, §6, §7, §8, §9, §10, §11, §12, §13, §14
# [1] = system: feline immunodeficiency virus (FIV TM-2 strain); assay: Anti-FIV activity in MYA-1 feline T-cells, virus amount by RT activity; conditions: FIV TM-2 in MYA-1 cells, RT activity at 10 days postinfection
# Procedure: (1) The serial 5 fold diluted samples were plated in 24 well microtiter plate. Feline T-cell lines (MYA-1 cells: 4×10^5 cells/well) and feline immunodeficiency virus (FIV TM-2 strain: 3000 cpm/well) were added to each well. The cells were cultured with 1.5 ml RPMI medium supplemented with 10% fetal bovine serum, 2 μg/ml polybrene, 100 unit/ml human recombinant IL-2 and 50 μM 2-mercaptoethanol in CO2 incubator at 37° C.
# 1. Preparation of FIV TM-2: FIV TM-2 was infected to MYA-1 cells (1×10^6 cells). The cells were cultured in 10 ml RPMI medium supplemented with 10% fetal bovine serum, 2 μg/ml polybrene, 100 unit/ml human recombinant IL-2 and 50 μM 2-mercaptoethanol in CO2 incubator at 37° C. Every 1-2 days, the cells were separated from the supernatant by centrifugation and continued culture with new medium. Each of the supernatant was filtrated by 0.45 μm filter, measured RT activity, and stored at as −80° C. as FIV stock virus.
# (2) Every 1-2 days, the supernatants were measured the amount of the virus by RT activity (as same as experimental example 2).
# [2] = Simian immunodeficiency virus, 120 h
smiles,measurement,setting,value
Nc1ccn([C@@H]2CS[C@H](CO)O2)c(=O)n1 [3TC],"Anti-HIV/SIV activity EC50, HIV-1 NL432",HIV-1 NL432,0.0084 µg/mL
same,"Anti-HIV/SIV activity EC50, HIV-2 Rod",HIV-2 Rod,0.022 µg/mL
same,"Anti-HIV/SIV activity EC50, SIVmac",SIVmac MA239,0.0091 µg/mL
same,"Anti-HIV/SIV activity EC50, SIVagm",SIVagm SA212,0.022 µg/mL
Cc1cn([C@H]2C[C@H](N=[N+]=[N-])[C@@H](CO)O2)c(=O)[nH]c1=O [AZT],"Anti-HIV/SIV activity EC50, HIV-1 NL432",HIV-1 NL432,0.00051 µg/mL
same,"Anti-HIV/SIV activity EC50, HIV-2 Rod",HIV-2 Rod,0.00028 µg/mL
same,"Anti-HIV/SIV activity EC50, SIVmac",SIVmac MA239,0.00035 µg/mL
same,"Anti-HIV/SIV activity EC50, SIVagm",SIVagm SA212,0.00036 µg/mL
same,EC50,[1],0.048 µg/mL
"O=C(/C=C(\O)c1nc[nH]n1)c1ccc(Cc2ccc(F)cc2)o1 [I-42, 1-[5-(4-fluorobenzyl)furan-2-yl]-3-hydroxy-3-(1H-1,2,4-triazol-3-yl)-propenone]",EC50,"[1]; Feline immunodeficiency virus, T-cell, 240 h, read-out: EC50",0.3 µg/mL
CC(C)c1nc(COC(N)=O)n(Cc2ccncc2)c1Sc1cc(Cl)cc(Cl)c1 [S-1153],"Anti-HIV/SIV activity EC50, HIV-1 NL432",HIV-1 NL432,0.00077 µg/mL
same,"Anti-HIV/SIV activity EC50, HIV-2 Rod",HIV-2 Rod,>4 µg/mL
same,"Anti-HIV/SIV activity EC50, SIVmac",SIVmac MA239,>4 µg/mL
same,"Anti-HIV/SIV activity EC50, SIVagm",SIVagm SA212,1.5 µg/mL
same,EC50,[1],>5 µg/mL
Cc1cn([C@H]2C=C[C@@H](CO)O2)c(=O)[nH]c1=O [d4T],"Anti-HIV/SIV activity EC50, HIV-1 NL432",HIV-1 NL432,0.0061 µg/mL
same,"Anti-HIV/SIV activity EC50, HIV-2 Rod",HIV-2 Rod,0.0041 µg/mL
same,"Anti-HIV/SIV activity EC50, SIVmac",SIVmac MA239,0.0034 µg/mL
same,"Anti-HIV/SIV activity EC50, SIVagm",SIVagm SA212,0.0045 µg/mL
Cc1ccnc2c1NC(=O)c1cccnc1N2C1CC1 [nevirapine],EC50,"HIV-1 NL432; Human immunodeficiency virus 1, 120 h",0.013 µg/mL
same,EC50,"HIV-2 Rod; Human immunodeficiency virus 2, 120 h",> 20 µg/mL
same,EC50,SIVmac MA239; [2],> 20 µg/mL
same,EC50,SIVagm SA212; [2],> 20 µg/mL
